The values that follow come from patent publication US20120077828A1, “CHEMICAL COMPOUNDS” (priority 2010, published 2012).

SMILES strings stand for the structures.

In the assay the target is T1, PERK (Homo sapiens, UniProt Q9NZJ5).
T1 construct: GST-PERK (536-1116) cytoplasmic domain was purchased from Invitrogen; purchased Invitrogen PV5106
T1 sequence (Q9NZJ5 536-1116): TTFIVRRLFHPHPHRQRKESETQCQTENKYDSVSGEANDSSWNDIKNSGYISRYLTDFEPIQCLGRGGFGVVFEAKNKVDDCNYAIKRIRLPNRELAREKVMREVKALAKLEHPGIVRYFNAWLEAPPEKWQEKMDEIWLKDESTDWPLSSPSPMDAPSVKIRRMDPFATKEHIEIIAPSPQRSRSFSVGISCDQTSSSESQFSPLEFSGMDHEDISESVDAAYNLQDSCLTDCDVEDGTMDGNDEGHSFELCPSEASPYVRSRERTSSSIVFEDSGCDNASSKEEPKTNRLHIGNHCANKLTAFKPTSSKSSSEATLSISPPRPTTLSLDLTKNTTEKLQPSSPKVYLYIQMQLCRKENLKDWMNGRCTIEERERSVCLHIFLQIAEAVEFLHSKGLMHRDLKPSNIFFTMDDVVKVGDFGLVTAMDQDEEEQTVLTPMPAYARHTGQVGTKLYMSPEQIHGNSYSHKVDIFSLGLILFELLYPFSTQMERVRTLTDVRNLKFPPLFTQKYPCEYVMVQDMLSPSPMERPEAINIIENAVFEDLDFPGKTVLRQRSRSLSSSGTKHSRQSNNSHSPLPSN
Put plainly: PKR-like Endoplasmic Reticulum Kinase (PERK) Assay (HTRF Format). The assay is classed as biochemical. The following applies: average, in at least one set of experimental runs; read-out: average pIC50 value against PERK (converted). As for the experimental part: PKR-like Endoplasmic Reticulum Kinase (PERK) Assay (HTRF Format)
Source of substrate: elF2α: 6-His-Full-length human elF2α is purified from baculovirus expression in Sf9 insect cells. The elF2 protein is buffer exchanged by dialysis into PBS, chemically modified by NHS-LC-Biotin and then buffer exchanged by dialysis into 50 mm TRIS pH 7.2/250 mM NaCl/5 mM DTT. Protein is aliquoted and stored at −80° C.
Assays were performed by adding GST-PERK solution to assay plates containing compounds and pre-incubated for 30 minutes at room temperature. The reaction is initiated by the addition of ATP and EIF2α substrate solution. Quench solution is added following a one hour incubation at room temperature. The plates are covered for 2 hours at room temperature prior to determination of signal. The resulting signal is quantified on a Viewlux Reader (PerkinElmer). The APC Signal is normalized to the Europium signal by transforming the data through an APC/Eu calculation.
Compounds under analysis were dissolved in DMSO to 1.0 mM and serially diluted 1 to 3 with DMSO through eleven dilutions. 0.1 μl of each concentration was transferred to the corresponding well of an assay plate. This creates a final compound concentration range from 0.00017 to 10 μM.
The data for concentration response curves were plotted as % Inhibition calculated with the data reduction formula 100*(1−(U1−C2)/(C1−C2)) versus concentration of compound where U is the unknown value, C1 is the average control value obtained for 1% DMSO, and C2 is the average control value obtained for 0.1 M EDTA. Data were fitted with a curve described by:
where A is the minimum y, B is the maximum y concentration [M], D is the slope factor, and x is the log10 of the compound.
In the above data, pIC50 is defined as −log(IC50) where the IC50 value is expressed in molar units.

As for `NCCc1cnc(N)c2c(-c3ccc4c(c3F)CCN4C(=O)Cc3cc(F)ccc3F)coc12` [Example 146, 7-(2-aminoethyl)-3-{1-[(2,5-difluorophenyl)acetyl]-4-fluoro-2,3-dihydro-1H-indol-5-yl}furo[3,2-c]pyridin-4-amine], the IC50 is not above 2.51 nM.

With `Nc1ncnc2[nH]cc(-c3ccc4c(c3)CCN4C(=O)Cc3cccc(C(F)(F)F)c3)c12` [Example 148, 5-(1-{[3-(trifluoromethyl)phenyl]acetyl}-2,3-dihydro-1H-indol-5-yl)-1H-pyrrolo[2,3-d]pyrimidin-4-amine], the IC50 is not above 0.316 nM.
